The values that follow come from patent US10137072B2, “Methods and compositions for providing broad spectrum photo protection using antioxidants” (L'OREAL, priority 2016, dated 2018).

This test has as its system human skin keratinocytes and/or fibroblasts. The experiment in a line: in vitro ROS probe assay: protection of live skin cells against ROS induced by visible light and infrared radiation. It is filed as cell-based. Set-up: key to Visible light protection % / IR protection %: Strong: “strong” refers to a percent protection greater than 70%; “Medium” refers to a percent protection less than or equal to 70% but greater than or equal to 40%; “Low” refers to a percent protection less than 40%; Negative: The term “negative” is used when there is no protection. To be noted: cells pre-treated 24 hours at 10 μg/ml (0.001%), antioxidant removed before exposure; for inhibition at 10 µg/mL: Homo sapiens, light or radiation study. From the text: A sensitive in vitro ROS (Reactive Oxygen Species) probe was used to evaluate the protective effects of antioxidants on live skin cells against visible light and infrared radiation (IR). Based on a blind screening of 26 compounds, 12 compounds were discovered that efficiently (>40%) decrease the ROS induced by visible light and/or IR radiation on human skin keratinocytes and/or fibroblasts. These compounds (or mixtures of these compounds) provide biological protection for skin cells against visible light and infrared radiation.
Human cells were pre-treated with and without antioxidants for 24 hours at a very low concentration (10 μg/ml (0.001%)). After incubation for 24 hours, the cells were rinsed and the medium changed in order to remove all the antioxidants before light exposure. The cells were exposed to visible light (100 J/cm^2) and infrared radiation (200 J/cm^2) using Xenon Light Source 300W Monochromatic Light with Filters Max-303 (Asashi Spectra company). After exposure to the visible light and the IR radiation, a new ROS probe was incubated with the cells for one hour to track the in vitro ROS produced. A comfocal microscope and associated software was used to image the fluorescent signals from individual cells and quantify the fluorescence intensity. By comparing with control samples without a pretreatment of antioxidants, it was possible to quantify the protection effect.
In the table above, “strong” refers to a percent protection greater than 70%, “Medium” refers to a percent protection less than or equal to 70% but greater than or equal to 40%. “Low” refers to a percent protection less than 40%. The term “negative” is used when there is no protection. The protection percentage was defined according to the equation below (wherein the term “AOX” refers to “antioxidant”).
Since the in vitro tests were done on live human skin cells, kerotinocytes and fibroblasts, and the antioxidants in the cell culture media were removed before light exposure, the results directly predict the biological protection effects of the antioxidants on skin against visible light and infrared radiation.

Where [1] appears, read: ROS induced by infrared radiation (200 J/cm^2), read-out: IR protection %.
[2] abbreviates: ROS induced by visible light (100 J/cm^2), read-out: Visible light protection %.
Where [3] appears, read: ROS induced by infrared radiation (200 J/cm^2).
[4] abbreviates: ROS induced by visible light (100 J/cm^2).

Like-named read-outs stand apart in the source and are kept apart here. Bounds are passed on as bounds.

As to `C[C@@H]1O[C@@H](O[C@H]2C(=O)c3c(O)cc(O)cc3O[C@@H]2c2ccc(O)c(O)c2)[C@H](O)[C@H](O)[C@H]1O` [Astilbin, astilbin], the inhibition at 10 µg/mL runs as follows: under setting [1], 40 to 70%; under setting [2], 40 to 70%.
Turning to `O=C(O)[C@H]1O[C@@H](Oc2cc3oc(-c4ccccc4)cc(=O)c3c(O)c2O)[C@H](O)[C@@H](O)[C@@H]1O` [Baicalin, baicalin], the inhibition at 10 µg/mL runs as follows: under setting [1], 40 to 70%; under setting [2], more than 70%.
For the molecule `NCCC(=O)N[C@@H](Cc1c[nH]cn1)C(=O)O` [Carnosin], the IR protection % result under setting [3] is on record as “Low (“Low” refers to a percent protection less than 40%)”. Further, the “Visible light protection %” value under setting [4] is listed as “Low (“Low” refers to a percent protection less than 40%)”.
`COc1cc(/C=C/C(=O)O)ccc1O` [Ferulic Acid, ferulic acid]: the inhibition at 10 µg/mL lay in the range of 40 to 70% under setting [1] and 40 to 70% under setting [2].
As to `COc1ccc([C@@H]2CC(=O)c3c(O)cc(O)cc3O2)cc1O` [Hesperetin, hesperetin], the inhibition at 10 µg/mL is, setting by setting: under setting [1], less than 40%; under setting [2], more than 70%.
Consider `COc1ccc(CCC(=O)c2c(O)cc(O[C@@H]3O[C@H](CO)[C@@H](O)[C@H](O)[C@H]3O[C@@H]3O[C@@H](C)[C@H](O)[C@@H](O)[C@H]3O)cc2O)cc1O` [Neohesperidin DHC], for which the IR protection % result under setting [3] is “Strong (“strong” refers to a percent protection greater than 70%)”. The “Visible light protection %” value under setting [4] is “Negative”.
On to `O=C(CCc1ccc(O)cc1)c1c(O)cc(O)cc1O` [Phloretin], for which the “Visible light protection %” value under setting [4] is “Negative”.
Turning to `OC[C@H]1O[C@@H](Oc2cc(O)cc(/C=C/c3ccc(O)cc3)c2)[C@H](O)[C@@H](O)[C@@H]1O` [Polydatin, polydatin], the inhibition at 10 µg/mL was more than 70% under setting [1] and more than 70% under setting [2].
For `O=C1N[C@H](C(=O)O)CS1` [Pro-cysteine], under setting [1], the inhibition at 10 µg/mL was less than 40%. The “Visible light protection %” value under setting [4] was “Negative”.
As for `Oc1ccc(C=Cc2cc(O)cc(O)c2)cc1` [Resveratrol], the inhibition at 10 µg/mL under setting [2] is less than 40%. Moreover, the IR protection % result under setting [3] was “Negative”.
As for `CC1=NCC[C@@H](C(=O)O)N1` [Ronacare Ectoin], under setting [3], the IR protection % entry is reported as “Low (“Low” refers to a percent protection less than 40%)”. In addition, under setting [4], the “Visible light protection %” value was “Negative”.
Take `COC1=C(OC)C(=O)C(C/C=C(\C)CC/C=C(\C)CC/C=C(\C)CC/C=C(\C)CC/C=C(\C)CC/C=C(\C)CC/C=C(\C)CC/C=C(\C)CC/C=C(\C)CCC=C(C)C)=C(C)C1=O` [Ubiquinone(coQ10), Ubiquinone]: the inhibition at 10 µg/mL under setting [1] is more than 70%.
Regarding `O=C1O[C@H]([C@@H](O)CO)C(O)=C1O` [Vit C], the IR protection % entry under setting [3] is “Low (“Low” refers to a percent protection less than 40%)”. Moreover, the “Visible light protection %” value under setting [4] is recorded as “Low (“Low” refers to a percent protection less than 40%)”.
Consider `C=CC(C)(C)c1cc(/C=C/C(=O)c2ccc(O)cc2)c(OC)cc1O` [licochalcone A], for which the “Visible light protection %” value under setting [4] is on record as “Negative”.
In the case of catechin, under setting [3], the IR protection % result is recorded as “Medium (“Medium” refers to a percent protection less than or equal to 70% but greater than or equal to 40%)”. In addition, the “Visible light protection %” value under setting [4] is on record as “Strong (“strong” refers to a percent protection greater than 70%)”.
